Source: US5843758A, “Enzyme based bioremediation” (priority 1994, dated 1998)
Numbering of substitutions follows the chain as printed.

Assays:
[1] = tested on: CFVP hydrolysing enzyme (E3 esterase) in homogenate of OP-resistant L. cuprina strain RM2-6 [der-S]; test: Radiometric partition assay for OP hydrolysis, whole-fly homogenate; assay type: biochemical, Lucilia cuprina; conditions: preliminary kinetic experiments
Procedure: Enzyme samples were diluted in 0.1M imidazole-HCl buffer pH 7.0 ("imidazole buffer") to a final volume of 25 μl. Reactions were started by the addition of 25 μl of [^14 C-ethyl]-chlorfenvinphos (CFVP, 306.5 MBq/mmole, Internationale Isotope Munchen) diluted in imidazole buffer from a 7.5 mM stock solution in ethanol. The final chlorfenvinphos concentration was typically 50 or 75 μM for routine assays but can be much lower for the determination of kinetic parameters. The reaction was incubated at 30° C. and stopped by the addition of 300 μl dichloromethane and 150 µl of imidazole buffer containing 10 μM diethylphosphate (Eastman Kodak) followed by vigourous vortex mixing. The reactions were centrifuged to separate phases and 150 μl of the upper, aqueous phase was taken for scintillation counting to determine the amount of ^14 C-diethylphosphate produced by hydrolysis of CFVP. Incubations with boiled enzyme were also performed to control for non-enzymic hydrolysis of CFVP.
(i) Whole-fly homogenates: Assays were carried out on whole-fly homogenates using 50 μM CFVP. […] The boiled control hydrolysed CFVP at a rate of 0.48 pmol/min/mg protein. Homogenates derived from an OP-susceptible strain (LS2) hydrolysed CFVP at the same rate as the boiled control, indicating the absence of CFVP hydrolytic enzymic activity in OP-susceptible L. cuprina.

[2] = biological target: T1, Lucilia cuprina LcαE7 (E3) esterase, OP resistant allele, clone Lc7L103D (Gly to Asp at amino acid position 137) (Lucilia cuprina, UniProt Q25252, form not given/G137D); test: Radiometric partition assay for OP hydrolysis, enzyme expressed in vitro (baculovirus/Sf9); assay type: biochemical
T1 sequence (Q25252 1-570 G137D): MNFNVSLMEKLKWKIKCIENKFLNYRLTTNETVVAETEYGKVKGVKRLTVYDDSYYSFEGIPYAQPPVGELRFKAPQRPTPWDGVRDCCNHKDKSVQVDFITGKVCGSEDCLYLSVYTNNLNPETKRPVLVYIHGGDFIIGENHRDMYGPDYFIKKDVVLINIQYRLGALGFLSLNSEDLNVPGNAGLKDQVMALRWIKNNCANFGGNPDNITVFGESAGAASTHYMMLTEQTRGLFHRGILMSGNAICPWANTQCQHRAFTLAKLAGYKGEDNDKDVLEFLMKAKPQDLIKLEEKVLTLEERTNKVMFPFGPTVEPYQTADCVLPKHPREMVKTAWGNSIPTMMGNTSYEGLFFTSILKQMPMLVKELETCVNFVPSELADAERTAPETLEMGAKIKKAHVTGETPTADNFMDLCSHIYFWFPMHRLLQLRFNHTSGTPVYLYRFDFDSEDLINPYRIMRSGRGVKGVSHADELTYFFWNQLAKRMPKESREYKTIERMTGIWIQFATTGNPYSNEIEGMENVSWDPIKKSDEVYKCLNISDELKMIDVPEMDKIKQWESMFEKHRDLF
Procedure: (§1) The susceptible (clone Lc743) and resistant (clone Lc7L103D) alleles of LcαE7 were cloned into the baculovirus transfer vector, Bacpac 8 (Clonetech), 3' of the polyhedrin promoter. Transfections were conducted using a lipofection method with polybrene (Sigma) according to King, L. A. & Possee, R. D. (The Baculovirus Expression System: A Laboratory Guide, Chapman & Hall, London, 1992). One μg of DNA of each of the resulting constructs together with 200 ng of Bacpac 6 baculovirus DNA (Clonetech), linearised by digestion with the restriction enzyme BSU 36I (Progema), was incubated in a solution of hepes buffered saline containing 0.5% polybrene (Sigma) at room temperature for 10 minutes. The solution was then used to transfect a single well of a six well tissue culture plate pre-seeded 2 hr previously with 10^4 Sf9 (Spodoptera frugiperda) cells in 1.5 ml Grace's medium (King, L. A. & Possee, R. D, The Baculovirus Expression System: A Laboratory Guide, Chapman & Hall, London, 1992). After 12 hr, the medium was removed, made up to 10% DMSO and placed back over the cells for 5 minutes. This was then replaced with 3 ml of Grace's medium containing 10% fetal calf serum. Construct plus polybrene, linearised virus plus polybrene and polybrene only controls were conducted in parallel with transfections. […]

[3] = biological target: T2, Lucilia cuprina LcαE7 (E3) esterase, OP susceptible allele, clone Lc743 (printed Lc473), SEQ ID NO:3 (Lucilia cuprina, UniProt Q25252); test: Malathion hydrolysis / time-dependent inhibition of the enzyme by malathion; assay type: biochemical; conditions: in the presence of 4 μM malathion; supernatant of cells expressing the OP susceptible allele
T2 sequence (Q25252 1-570): T1 sequence (Q25252 1-570 G137D) with D137G
Procedure: as §1, with “1992).” for “1992). After 12 hr, the medium was removed, made up to 10% DMSO and placed back over the cells for 5 minutes. This was then replaced with 3 ml of Grace's medium containing 10% fetal calf serum. Construct plus polybrene, linearised virus plus polybrene and polybrene only controls were conducted in parallel with transfections.”
Initial rates of malathion hydrolysis by the supernatant of cells expressing the OP susceptible allele, […], was 3.3 pmole/min/μl from an initial concentration of 4 μM malathion. […] Malathion hydrolysis (0.5 pmoles/min/μl) was also detected in the supernatant of cells expressing the D. melanogaster homologue, DmaE7.

CCOP(=O)(OCC)OC(=CCl)c1ccc(Cl)cc1Cl [CFVP, chlorfenvinphos]
Km ([1]; RM2-6 homogenate, CFVP hydrolysis, pH 7.0, 30° C.): ~16 µM
Vmax for the hydrolysis of CFVP ([1]; homogenates of the resistant strain): approximately 13 pmol/min/mg protein
Km ([2]; cells expressing the Lc7L103D allele, CFVP hydrolysis, imidazole-HCl pH 7.0, 30° C., preliminary kinetic experiments, read-out: Km of the CFVP hydrolysing enzyme): ~16 µM
Vmax of CFVP hydrolysis ([2]; cells expressing the OP resistant allele Lc7L103D, pH 7.0, 30° C.): approximately 2.0 nmol/min/mg protein

CCOC(=O)CC(SP(=S)(OC)OC)C(=O)OCC (centres unmarked) [malathion]
half-life of enzyme inhibition by malathion [3]: about 20 minutes
